Test results from the supplement of paper PMC8149375.

Columns and labels:
Conditions in all cases: treatment: drug alone; 5 days
769-P [1] = assay: GI50, drug alone; higher = less potent
Procedure: (§1)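 Primary HTS: 8 RCC cell lines treated with 8 doses (up to 10 uM) of each library drug alone for 5 days; viability read by CellTiter-Glo and normalised to DMSO. GI50 was fitted with XLfit (4-parameter), AUC is the area under the dose-response curve, and minimum viability is the lowest fraction of DMSO viability across doses.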

786-O [2] = assay: GI50, drug alone; higher = less potent
Procedure: as §1

A498 [3] = assay: GI50, drug alone; higher = less potent
Procedure: as §1

ACHN [4] = assay: GI50, drug alone; higher = less potent
Procedure: as §1

CAKI-1 [5] = assay: GI50, drug alone; higher = less potent
Procedure: as §1

SN12C [6] = assay: GI50, drug alone; higher = less potent
Procedure: as §1

TK-10 [7] = assay: GI50, drug alone; higher = less potent
Procedure: as §1

UO-31 [8] = assay: GI50, drug alone; higher = less potent
Procedure: as §1

769-P [9] = assay: minimum viability across doses, drug alone, relative to DMSO (fraction); higher = less growth inhibition
Procedure: as §1

786-O [10] = assay: as above
Procedure: as §1

A498 [11] = assay: as above
Procedure: as §1

ACHN [12] = assay: as above
Procedure: as §1

CAKI-1 [13] = assay: as above
Procedure: as §1

SN12C [14] = assay: as above
Procedure: as §1

TK-10 [15] = assay: as above
Procedure: as §1

UO-31 [16] = assay: as above
Procedure: as §1

769-P [17] = assay: AUC of dose-response viability curve, drug alone (arbitrary (AUC of normalised viability)); higher = less growth inhibition
Procedure: as §1

786-O [18] = assay: as above
Procedure: as §1

A498 [19] = assay: as above
Procedure: as §1

ACHN [20] = assay: as above
Procedure: as §1

CAKI-1 [21] = assay: as above
Procedure: as §1

SN12C [22] = assay: as above
Procedure: as §1

TK-10 [23] = assay: as above
Procedure: as §1

UO-31 [24] = assay: as above
Procedure: as §1

Row | GI50, drug alone (786-O [2]) | GI50, drug alone (ACHN [4]) | SMILES | GI50, drug alone (769-P [1]) | GI50, drug alone (A498 [3]) | GI50, drug alone (CAKI-1 [5]) | GI50, drug alone (SN12C [6]) | GI50, drug alone (TK-10 [7]) | GI50, drug alone (UO-31 [8]) | minimum viability across doses (769-P [9]) | minimum viability across doses (786-O [10]) | minimum viability across doses (A498 [11]) | minimum viability across doses (ACHN [12]) | minimum viability across doses (CAKI-1 [13]) | minimum viability across doses (SN12C [14]) | minimum viability across doses (TK-10 [15]) | minimum viability across doses (UO-31 [16]) | AUC of dose-response viability curve (769-P [17]) | AUC of dose-response viability curve (786-O [18]) | AUC of dose-response viability curve (A498 [19]) | AUC of dose-response viability curve (ACHN [20]) | AUC of dose-response viability curve (CAKI-1 [21]) | AUC of dose-response viability curve (SN12C [22]) | AUC of dose-response viability curve (TK-10 [23]) | AUC of dose-response viability curve (UO-31 [24])
1 | > 10 µM | 8.82 µM | CCOc1ccn(-c2ccc(F)cc2)c(=O)c1C(=O)Nc1ccc(Oc2ccnc(N)c2Cl)c(F)c1 | > 10 µM | > 10 µM | > 10 µM | > 10 µM | > 10 µM | > 10 µM | 0.817 | 0.503 | 0.87 | 0.443 | 0.47 | 0.75 | 0.665 | 0.722 | 3.17 | 2.3 | 3.52 | 3.06 | 2.99 | 3.14 | 2.99 | 4.18
2 | 5.57 µM | 9.54 µM | Cc1ccc(NC(=O)c2ccc(CN3CCN(C)CC3)cc2)cc1Nc1nc(-c2cccnc2)cs1 [Masitinib (AB1010)] | > 10 µM | > 10 µM | > 10 µM | 5.8 µM | > 10 µM | > 10 µM | 0.749 | 0.168 | 0.635 | 0.482 | 0.784 | 0.292 | 0.651 | 1 | 3.32 | 3.22 | 3.2 | 3.23 | 3.47 | 3.01 | 3.39 | 4.02

Second part, the molecule before the results:

Row | SMILES | GI50, drug alone (786-O [2]) | GI50, drug alone (ACHN [4]) | GI50, drug alone (769-P [1]) | GI50, drug alone (A498 [3]) | GI50, drug alone (CAKI-1 [5]) | GI50, drug alone (SN12C [6]) | GI50, drug alone (TK-10 [7]) | GI50, drug alone (UO-31 [8]) | minimum viability across doses (769-P [9]) | minimum viability across doses (786-O [10]) | minimum viability across doses (A498 [11]) | minimum viability across doses (ACHN [12]) | minimum viability across doses (CAKI-1 [13]) | minimum viability across doses (SN12C [14]) | minimum viability across doses (TK-10 [15]) | minimum viability across doses (UO-31 [16]) | AUC of dose-response viability curve (769-P [17]) | AUC of dose-response viability curve (786-O [18]) | AUC of dose-response viability curve (A498 [19]) | AUC of dose-response viability curve (ACHN [20]) | AUC of dose-response viability curve (CAKI-1 [21]) | AUC of dose-response viability curve (SN12C [22]) | AUC of dose-response viability curve (TK-10 [23]) | AUC of dose-response viability curve (UO-31 [24])
3 | COCC(=O)NC/C=C/c1ccc2ncnc(Nc3ccc(Oc4ccc(C)nc4)c(C)c3)c2c1 | > 10 µM | > 10 µM | > 10 µM | > 10 µM | > 10 µM | > 10 µM | > 10 µM | > 10 µM | 0.878 | 0.717 | 1.07 | 0.61 | 0.937 | 0.739 | 0.661 | 1.11 | 3.37 | 2.92 | 4.6 | 3.39 | 3.51 | 3.1 | 3.07 | 5.09
4 | Nc1cccc(-c2cc3c(Oc4cccc(O)c4)ncnc3[nH]2)c1 [TWS119] | 5.04 µM | 2.8 µM | 3.63 µM | > 10 µM | 4.56 µM | 5.5 µM | 2.65 µM | 8.62 µM | 0.0987 | 0.154 | 0.572 | 0.153 | 0.113 | 0.295 | 0.0991 | 0.0946 | 2.93 | 3.03 | 3.93 | 2.77 | 3.09 | 2.86 | 2.75 | 4.2
5 | O=C(NOCC(O)CO)c1cc(Br)c(F)c(F)c1Nc1ccc(I)cc1F (stereo not given) | 0.448 µM | 1.99 µM | 4.98 µM | > 10 µM | 1.25 µM | > 10 µM | 2.84 µM | > 10 µM | 0.427 | 0.263 | 0.89 | 0.372 | 0.202 | 0.602 | 0.419 | 0.816 | 2.62 | 1.94 | 3.58 | 2.42 | 2.32 | 2.83 | 2.4 | 3.29
